Assay results reported in US6015560A, “Antibody recognizing endothelial cell ligand for leukocyte CR3” (priority 1995, dated 2000).

Tests used:
blood brain barrier = assay: Rabbit meningitis model: CSF protein and lactate (blood brain barrier permeability); type: in vivo
Protocol: (§1) The rabbit model was performed according to an established protocol. Specific pathogen free, New Zealand white rabbits (2 kg; Hare Marland, Nutley, N.J.) were anesthetized with valium (2.5 mg/kg, subcutaneously, Hoffman-LaRoche, Nutley, N.J.), ketamine (35 mg/kg, intramuscularly, Aveco, Fort Dodge, Iowa) and xylazine (5 mg/kg, intramuscularly, Miles Laboratories, Shawnee, Kans.) and a helmet of dental acrylic was affixed to the calvarium. Twenty four hours later, the rabbits were anesthetized with ethyl carbamate (1.75 g/kg; Aldrich Chemical Co., Milwaukee, Wis.) and pentobarbital (15 mg/kg; Abbott Laboratories, Abbott Park, Ill.) and placed in a stereotaxic frame. A spinal needle was introduced into the cisterna magna and 300 μl of CSF was withdrawn. The animals were challenged intracisternally with 10^8 heat killed, unencapsulated pneumococcus strain R6 introduced in 200 μl of saline (time 0). One hour later, animals were treated with peptides dissolved in 1 ml of saline by intravenous injection into the right marginal ear vein. The concentration of FHA was 0.1 μM and that of the FHA Ia, Factor X II, and scrambled FHA II peptides was 10 μM. For the acetyl-FHA II, acetyl/amide-FHA II, dimer of FHA II and trimer of FHA II peptides, the concentration was 10^-3 μM. The concentration of FHA II is given in the results section. Samples of CSF were withdrawn at hourly intervals after pneumococcal inoculation and leukocyte density was measured using a cell counter (Coulter Electronics Inc., Hialeah, Fla.). CSF samples were centrifuged at 10,000×g for 5 minutes and the supernatant was stored at -70° C. until assayed for protein concentration using the bicinchoninic acid method (BCA Kit, Pierce Chemical Co., Rockford, Ill.) and for lactate concentration (Lactate Detection Kit, Sigma, St. Louis, Mo.). Statistically significant differences between treatments were determined by a one way analysis of variance test.
Loss of barrier function of the cerebral capillary endothelium during inflammation is reflected by an influx of serum proteins into the CSF. […] To examine if the peptides were able to ameliorate these measures of cerebral injury, CSF protein and lactate concentrations were measured hourly in peptide-treated and control animals (Table 10).
Leukocyte migration into the CSF in bacterial meningitis is associated with loss of barrier function of the cerebral capillary endothelium, resulting in influx of serum proteins into the CSF. To determine whether FHA peptides were able to prevent this leukocyte-dependent injury, protein concentrations in the CSF were measured throughout the course of inflammation in peptide-treated and control animals.

[1] = tested on: human umbilical vein endothelial cells; assay: Adherence of neutrophils to cultured (TNF-stimulated) endothelial cells; type: cell-based
Protocol: Human umbilical vein endothelial cells (HUVEC, first passage, Clonetics, San Diego, Calif.) were subcultured at confluence into Terasaki tissue culture wells. After 24 hours, confluent monolayers were used for adherence assays. Monolayers were stimulated with 10 ng/ml TNF alpha (Boehringer Mannheim, Indianapolis, Ind.) at 37° C. for four hours. 30 μl of human neutrophils (10^6 /ml) were labeled with fluorescein by the method of Lo et al. (1991), J. Exp. Med. 173 1493-1500, and preincubated for 15 minutes at 37° C. with 20 μl of peptides (0.5 mM in HAP) or HAP (phosphate buffered saline containing 0.5 mg/ml human serum albumin, 3 mM glucose, and 0.3 U/ml aprotinin) as a control buffer. For some experiments, endothelial cells were pretreated from 10 minutes with Factor X or antibodies against Factor X receptor (EPR-1; Altieri et al. (1990), J. Immunol. 145, 246-253) 12H1 and 9D4 (obtained from Dr. D. Altieri, Scripps Research Institute, Lajolla, Calif.) and then washed. Neutrophils were allowed to adhere to the monolayer for 15 mins. at 37° C. and unbound cells were removed by submersion of the plate in PBS buffer. The number of adherent neutrophils was counted in a 40× microscope field and expressed as a percentage of adherence in control wells with neutrophils treated with HAP buffer alone. The mAb IB4 against CD18 (50 μg/ml; Merck Inc., Rahway, N.J.) served as a positive control.
The procedures for determining the neutrophil adherence to cultured endothelial cells and the transendothelial migration of neutrophils were identical with those of Example 9. Control values were the same as those shown in Example 9.

C3bi = assay: Inhibition of binding of 12.1F9 to E-C3bi by peptides; design: species or system human
Source text: The antibody 12.1F9 maps to the region 1279-2011 of FHA. When the derived amino acid sequence of this region was compared to that of C3, a region of 11 amino acids with similar sequence was found between FHA residues 1408-1418 and C3 residues 1187-1197 (Table 14). […] However, the FHA-20-mer and the homologous C3-derived peptide blocked binding by up to 60%.

leukocytes in CSF [2] = assay: Rabbit meningitis model: leukocyte migration into CSF; type: in vivo
Protocol: as §1
The anti-inflammatory effects of the administered peptides were assessed in the rabbit model for meningitis by the procedures described in Example 10. The animals received 1 ml of 1 uM peptide intravenously. In a slight departure from the protocol described in Example 10, samples of blood were drawn from the left marginal ear vein 30 minutes after the administration of the peptides to determine peripheral leukocyte concentrations.

leukocytes in CSF [3] = assay: Leukocyte and protein influx into CSF of rabbits challenged with pneumococci; type: in vivo, rabbit; conditions: intravenous, meningitis model
Source text: This inhibitory activity implies that antibodies to FHA which bind to any of the three Factor X regions would disturb leukocyte recruitment. This is to be distinguished from anti-FHA antibodies that bind to endothelia by recognizing an integrin receptor which is an endothelial cell component (see below). […] This is shown in FIG. 6 where various doses of antibody were given to rabbits and the number of leukocytes recruited into the cerebrospinal fluid in response to pneumonoccal meningitis was determined.
Rabbits were inoculated intracisternally with 10^8 pneumococci and the generation of an inflammatory response in cerebrospinal fluid (CSF) was followed over time by measuring the appearance of leukocytes and protein in CSF. Animals were treated with the antibodies intravenously (2 mg/kg of culture supernatant fluid) at the same time as the intracisternal challenge was given.

[4] = 6 hours, peptides 10 μM, FHA 0.1 μM

Substance: filamentous hemagglutinin [native FHA]
- protein influx into CSF and lactate generation (in words) (blood brain barrier; 10 μM peptides, 0.1 μM FHA): significantly protective for protein influx and lactate generation
- Total protein in CSF (blood brain barrier; 6 hours): 1.70 ± 0.33 mg/mL
- Lactate in CSF (blood brain barrier; [4]): 25.0 ± 5.3 mg/100 ml
- Protein in CSF (blood brain barrier; [4]): 1.3 ± 0.3 mg/ml CSF
- Total protein in CSF (blood brain barrier; 7 hours): 1.86 ± 0.76 mg/mL
- reduction of neutrophil binding to HUVEC ([1]; 25 μg/ml=0.3 μM): 51±8%
- inhibition of adherence of neutrophils to cultured endothelial cells ([1]; 50 ug/ml, 0.2 uM): 51±7%
- maximal inhibition of neutrophil attachment ([1]; concentration dependence): ~ 50%
- block of binding of 12.1F9 to C3bi (in words) (C3bi): blocked binding almost completely
- Adherence index (C3bi; peptides 50 μg/ml, normalized to a control value of 100): 16 ± 16
- anti-inflammatory effect (in words) (leukocytes in CSF [2]; 10^-3 μM i.v.): ineffective
- mean leukocyte concentration in CSF (leukocytes in CSF [2]; 7 hours, FHA 0.1 μM (25 μg) i.v.): 2096±450 /μl CSF
- leukocyte density vs control (in words) (leukocytes in CSF [2]; 7 hours, 10^-1 μM): statistically significantly different from control
- reduction of CSF leukocytosis (leukocytes in CSF [2]; peptides 10 μM, FHA 0.1 μM): > 60%
- leukocyte influx into / inflammation of CSF (in words) (leukocytes in CSF [3]): decreases inflammation
